# Experimental data: US12612403B2, “Nitrogen-containing heterocyclic derivative inhibitor, and preparation method therefor and use thereof” (SHANGHAI HANSOH BIOMEDICAL CO., LTD., priority 2024, dated 2026)
# Key:
# [1] = test system: hyperlipidemia animal model of B6-hPCSK9 transgenic mice; assay: In vivo pharmacodynamic study in hyperlipidemia model of B6-hPCSK9 transgenic mice (LDL-C, TC, plasma PCSK9); design: species or system B6-hPCSK9 transgenic C57 mice; conditions: PO administration, Day 14, B6-hPCSK9 transgenic mice on high-fat feed, normalized to vehicle group
# Procedure: 1. Experimental objective: The compounds of the present disclosure were evaluated for in vivo pharmacodynamics in a hyperlipidemia animal model of B6-hPCSK9 transgenic mice.
# 2.1 Animals: B6-hPCSK9 transgenic C57 mice, 6-8 weeks old, male, purchased from Jiangsu GemPharmatech Co., Ltd.
# 2.2 Animal model: After delivery to a barrier system, the animals were given one week for acclimatization and began to feed on the high-fat feed. The body weight and feed weight were weighed once a week, and the body weight and food intake thereof were recorded.
# 2.3 Grouping and administration • a. The animals were grouped by a random grouping method. • c. According to the grouping results, administration with the test drug was started (mode of administration: oral administration; administration volume: 10 mL/kg; frequency of administration: once/day or single administration; administration cycle: 21 days; vehicle: 10% Solutol HS 15/90% Saline). Test drug: Compounds of the present disclosure, made in house. • d. After the test drug was administered, the body weight and feed weight were weighed twice a week and blood was taken once a week. • e. The data was processed with software such as Excel. […] PCSK9 in plasma was detected by ELISA.
# [2] = Pharmacokinetic determination in mice (PO 5 mg/kg, IV 1 mg/kg); assay type: in vivo, C57BL/6J mice; conditions: male, C57BL/6J, mouse, plasma, C57 mice, PO administration, 5 mpk; for AUC(0-inf): read-out: Area under the curve AUC0-∞; for half-life: read-out: Half-life t1/2 (converted); for MRT: read-out: Mean residence time MRT; for Cmax: read-out: Plasma concentration Cmax; for Tmax: read-out: Time to peak tmax
# Procedure, shortened: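 Fasted male C57BL/6J mice (n=3 per route) dosed PO 5 mg/kg in 10% Solutol HS15 or IV 1 mg/kg in 5% DMSO/10% Solutol HS15/85% PBS. Orbital blood sampled 0.083 (IV) to 24 h; plasma measured by LC-MS/MS, parameters by WinNonlin.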
# [3] = molecular target: T1, PCSK9 protein (Homo sapiens, UniProt Q8NBP7); assay: Binding ability to PCSK9 protein (HTRF); conditions: PCSK9-His, Alexa Fluor 647 probe compound
# T1 construct: purchased Sino biology (Sino Biological) 29698-H08H
# T1 sequence (Q8NBP7 153-692): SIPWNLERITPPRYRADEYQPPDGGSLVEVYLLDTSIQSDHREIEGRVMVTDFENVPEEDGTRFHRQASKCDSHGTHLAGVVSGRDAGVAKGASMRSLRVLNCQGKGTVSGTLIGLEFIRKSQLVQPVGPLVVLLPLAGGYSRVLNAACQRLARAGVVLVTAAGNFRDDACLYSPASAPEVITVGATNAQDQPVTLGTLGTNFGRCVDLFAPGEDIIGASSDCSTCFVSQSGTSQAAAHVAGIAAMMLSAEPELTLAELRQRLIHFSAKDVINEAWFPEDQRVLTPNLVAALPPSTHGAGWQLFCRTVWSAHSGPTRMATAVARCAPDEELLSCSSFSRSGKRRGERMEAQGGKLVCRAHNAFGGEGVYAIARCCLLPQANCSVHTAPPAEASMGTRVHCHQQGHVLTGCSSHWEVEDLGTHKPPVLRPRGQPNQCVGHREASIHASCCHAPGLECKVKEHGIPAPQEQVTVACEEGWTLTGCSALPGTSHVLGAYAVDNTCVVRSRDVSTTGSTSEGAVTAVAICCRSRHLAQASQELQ
# Procedure: 1. Experimental objective: To detect the action of compounds to bind PCSK9 protein by an HTRF method.
# 3. Experimental data processing method: Four-parameter log(inhibitor) vs. response—Variable slope (four parameters) in XLit was used to perform non-linear fitting of the compound concentration and the corresponding inhibition rate, and IC50 was calculated.
# [4] = In vitro metabolic stability in human liver microsomes; assay type: in vitro ADME; conditions: pH 7.4
# Procedure: 1. Experimental objective: The purpose of this experiment was to evaluate the metabolic stability of the compounds in phase I and partially phase II in mouse, rat and human liver microsomes, respectively.
# 2.1 Drug preparation: 10 mM stock solution of the compound of the present disclosure was prepared in DMSO (or other suitable solution) and stored in a −20° C. refrigerator for later use. The compound of the present disclosure was made in house.
# 2.2 Experimental steps • 1) Preparation of buffer: 4.01 mL of 1 M K2HPO4·3H2O (AR grade) and 0.99 mL of 1 M KH2PO4 (AR grade) were dissolved in ultrapure water and the volume was adjusted to 50 mL to prepare a phosphate buffer with a final concentration of 100 mM. • 2) Preparation of compound working solution: Preparation of compound working solution: 2 μL of the compound stock solution was added to 998 μL of phosphate buffer to a final concentration of 20 μM. According to the properties of the compound, the preparation proportions could be adjusted appropriately to adjust the final concentration. • 3) Preparation of liver microsome working solution: 156.3 μL of 20 mg/mL microsomes were diluted to 5 mL with 100 mM phosphate buffer, and the mixture was mixed well to reach a final concentration of 0.625 mg/mL. • 4) Preparation of NADPH and UDPGA: 33.3 mg of NADPH and 25.8 mg of UDPGA were weighed and added to 2 mL of 100 mM phosphate buffer to reach a final concentration of 20 mM. • 5) Preparation of pore-forming agent (Alamethicin): 1 mg of Alamethicin was weighed and added to 200 μL of methanol to prepare a 5 mg/mL solution. 10 μL of the solution was taken and added to 990 μL phosphate buffer (pH 7.4) to reach a final concentration of 50 μg/mL. • 6) Preparation of reaction stop solution: The internal standard was diluted with acetonitrile (or other suitable solution) to use as a stop solution and stored in a 2° C.-8° C. refrigerator. • 7) Incubation process: 400 μL of the prepared liver microsomes, 25 μL of the compound working solution (20 μM) and 25 μL of Alamethicin (50 μg/mL) were successively added to the 96-well plate, and the mixture was pre-incubated at 37° C. for 10 min. Then, 50 μL of prepared NADPH/UDPGA was added to start the reaction, and the mixture was incubated at 37° C. The total volume of the reaction system was 500 μL. The final contents of each component were as follows:
# 50 μL of samples were taken at 0, 5, 15, 30, 60 and 120 min, respectively, 200 μL of a cold stop solution containing the internal standard was added to stop the sample reaction, the mixture was centrifuged at 3500 rpm for 10 min, and the supernatant was taken and analyzed by LC-MS/MS.
# Instruments: Shimadzu LC-20 AD; Chromatographic column: Phenomenex Gamin® C18 (50*4.6 mm, 5 μm particle size); mobile phase: A: 0.1% aqueous formic acid, B: acetonitrile; Elution gradient: 0.2-1.6 min, […], 3.0-3.1 min, 95% A to 5% A; Flow rate: 1.0 ml/min; Run time: 4.0 min; Injection volume: 5 μL.
# Instruments: AP14000 liquid chromatography mass spectrometer, AB Sciex; Ion source: electrospray ionization source (ESI); Drying gas: N2, temperature 500° C.; Electrospray voltage: 5000 V; Detection mode: positive ion detection; Scanning mode: Reaction Monitoring (MRM) mode; Scanning time: 0.8401 s.
# 3. Data processing: The raw data were calculated according to the following formula: […]
# The in vitro liver microsome intrinsic clearance rate (CLint) and liver intrinsic clearance rate (CLint,liver) were calculated by Ke.
# [5] = test system: PCSK9 secreted by HepG2 cells; assay: Effect on the concentration of PCSK9 secreted by HepG2 cells (ELISA); assay type: cell-based; conditions: Homo sapiens, 48 hours, PCSK9 in culture medium by ELISA
# Procedure, shortened: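 HepG2 cells treated with compound for 48 h at 37° C., 5% CO2. Secreted PCSK9 in medium quantified by sandwich ELISA (HRP detection, OD 450 nm) against a 0–10 ng/mL standard curve. Inhibition relative to control; IC50 fitted from concentration–inhibition data.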
SMILES,"LDL-C change vs vehicle (%), Day 14 ([1]; 10 mpk) [%]",AUC(0-inf) [2] [ng·h/mL],half-life [2] [h],MRT [2] [h],Cmax [2] [ng/mL],Tmax [2] [h],IC50 [3] [nM],half-life at 1 µM [4] [h],microsomal CLint at 1 µM [4] [µL/min/mg],IC50 [5] [nM],"LDL-C change vs vehicle (%), Day 14 ([1]; 6 mpk) [%]"
"O=C1c2cccnc2CN1c1ccc(N[C@H]2CC[C@H](Nc3nc4cc(C(F)(F)F)ccn4n3)C2)nc1 [Example 12, 6-(6-(((1S,3S)-3-((7-(trifluoromethyl)-[1,2,4]triazolo[1,5-a]pyridin-2-yl)amino)cyclopentyl)amino)pyridin-3-yl)-6,7-dihydro-5H-pyrrolo[3,4-b]pyridin-5-one]",−33.75,9510,2.9,2.8,4310,0.25,–,–,–,–,–
O=c1nc(O)c(F)cn1-c1ccc(N[C@H]2CC[C@H](Nc3nc4cc(C(F)(F)F)ccn4n3)C2)nc1 [Example 110],–,11300,3,2.6,2920,1,18.7,78.7,0.3,–,–
"O=C1c2ncccc2CN1c1cnc(N[C@H]2CC[C@H](Nc3nc4cc(C(F)(F)F)ccn4n3)C2)c(F)c1 [Example 112, 6-(5-fluoro-6-(((1S,3S)-3-((7-(trifluoromethyl)-[1,2,4]triazolo[1,5-a]pyridin-2-yl)amino)cyclopentyl)amino)pyridin-3-yl)-5,6-dihydro-7H-pyrrolo[3,4-b]pyridin-7-one]",−38.14,33800,2.2,4.7,5070,1,8.3,–,–,6900,–
O=C1c2ncc(F)cc2CN1c1cnc(N[C@H]2CC[C@H](Nc3nc4cc(OC(F)F)ccn4n3)C2)c(F)c1 [Example 154],−35.66,13300,2.5,3.7,2640,1,–,–,–,5500,–
O=C1c2ccc(C(F)(F)F)nc2CN1c1cnc(N[C@H]2CC[C@H](Nc3nc4cc(OC(F)F)ccn4n3)C2)c(F)c1 [Example 159],–,76800,9.8,10.7,7660,2,16.8,20.1,1.15,–,–
O=C1c2ncccc2CN1c1cnc(N[C@H]2CC[C@H](Nc3nc4cc(F)ccn4n3)C2)c(F)c1 [Example 164],–,–,–,–,–,–,7.2,15.6,1.48,–,–
"O=c1ccccn1-c1cnc(N[C@H]2CC[C@H](Nc3nc4cc(F)ccn4n3)C2)c(F)c1 [Example 186, 5′-fluoro-6′-(((1S,3S)-3-((7-fluoro-[1,2,4]triazolo[1,5-a]pyridin-2-yl)amino)cyclopentyl)amino)-2H-[1,3′-bipyridine]-2-one]",−51.19,–,–,–,–,–,8.5,35.4,0.7,–,–
O=c1nc(O)ccn1-c1cnc(N[C@H]2CC[C@H](Nc3nc4cc(F)ccn4n3)C2)c(F)c1 [Example 188],−47.11,–,–,–,–,–,–,12.6,1.8,–,–
O=C1c2ccnn2CCN1c1cnc(N[C@H]2CC[C@H](Nc3nc4cc(F)ccn4n3)C2)c(F)c1 [Example 201],−31.45,–,–,–,–,–,–,–,–,–,–
O=C1c2ccnn2CCN1c1cnc(N[C@H]2CC[C@H](Nc3nc4cc(C(F)(F)F)ccn4n3)C2)c(F)c1 [Example 212],−60.08,–,–,–,–,–,–,–,–,–,–
"O=c1ccccn1-c1ccc(N[C@H]2CC[C@H](Nc3nc4cc(F)ccn4n3)C2)nc1 [compound 1, 6′-(((1S,3S)-3-((7-fluoro-[1,2,4]triazolo[1,5-a]pyridin-2-yl)amino)cyclopentyl)amino)-2H-[1,3′-bipyridine]-2-one, reference compound]",–,–,–,–,–,–,–,–,–,–,−31.52
